Tests used:
Test in all cases: Agar dilution MIC
Settings in all cases: 35° C., 16-20 hours
[1] = system: S. epidermidis MRO 002046; type: cell-based
Description: (§1) Briefly, the compounds of invention were weighed, dissolved in dimethyl sulfoxide, serially two fold diluted in the same solvent and then incorporated into molten Mueller Hinton Agar (MHA) in a petridish just before solidification, with each petridish containing a different concentration of a compound.
(§2) The bacterial inoculum was prepared by picking 3 to 5 well isolated bacterial colonies with the same morphological appearance from an 18-24 hours old culture with an inoculating loop, transferring the growth to a tube containing 3 mL of normal saline and adjusting the turbidity of the saline suspension to 0.5 Mc Farland Turbidity Standard equivalent to a bacterial population of 1.5×10^8 colony forming units (CFU) per mL of suspension. The suspension was diluted 1:10 in saline (i.e. 0.5 mL suspension 4.5 mL saline) to get a bacterial population of 1.5×10^7 CFU/mL as inoculum.
(§3) The inoculated petridishes were incubated at 35° C. in an ambient atmosphere for 16-20 hours.

S. epidermidis MRO 02045 = type: cell-based
Description: as §1, §2, §3

[2] = system: S. haemolyticus MRO 02064; type: cell-based
Description: as §1, §2, §3

S. epidermidis MRO 02002 = type: cell-based
Description: as §1, §2, §3

[3] = system: S. saprophyticus MRO 02003; type: cell-based
Description: as §1, §2, §3

S. epidermidis MRO 02095 = type: cell-based
Description: as §1, §2, §3

E. faecium MRO 04038 = type: cell-based, Enterococcus faecium
Description: as §1, §2, §3

E. faecium ATCC 700221 = type: cell-based, Enterococcus faecium
Description: as §1, §2, §3

E. faecium MRO 04037 = type: cell-based, Enterococcus faecium
Description: as §1, §2, §3

E. faecium MRO 04198 = type: cell-based, Enterococcus faecium
Description: as §1, §2, §3

S. aureus MRO 00013 = type: cell-based, Staphylococcus aureus
Description: as §1, §2, §3

S. aureus ATCC 43300 = type: cell-based, Staphylococcus aureus
Description: as §1, §2, §3

S. aureus MRO 00059 = type: cell-based, Staphylococcus aureus
Description: as §1, §2, §3

S. aureus MRO 0003 = type: cell-based, Staphylococcus aureus
Description: as §1, §2, §3

S. aureus MRO 00055 = type: cell-based, Staphylococcus aureus
Description: as §1, §2, §3

S. aureus ATCC 29213 = type: cell-based, Staphylococcus aureus
Description: as §1, §2, §3

S. aureus MRO 00030 = type: cell-based, Staphylococcus aureus
Description: as §1, §2, §3

S. aureus MRO 002053 = type: cell-based, Staphylococcus aureus
Description: as §1, §2, §3

S. aureus MRO 0001 = type: cell-based, Staphylococcus aureus
Description: as §1, §2, §3

S. aureus MRO 00048 = type: cell-based, Staphylococcus aureus
Description: as §1, §2, §3

E. faecalis MRO 04050 = type: cell-based, Enterococcus faecalis
Description: as §1, §2, §3

E. faecalis MRO 04035 = type: cell-based, Enterococcus faecalis
Description: as §1, §2, §3

E. faecalis MRO 04205 = type: cell-based, Enterococcus faecalis
Description: as §1, §2, §3

E. faecalis ATCC 29212 = type: cell-based, Enterococcus faecalis
Description: as §1, §2, §3

E. faecalis ATCC 51299 = type: cell-based, Enterococcus faecalis
Description: as §1, §2, §3

[4] = system: M. catarrhalis ATCC 43628; type: cell-based, Moraxella catarrhalis
Description: as §1, §2, §3

[5] = system: M. catarrhalis ATCC 43627; type: cell-based, Moraxella catarrhalis
Description: as §1, §2, §3

[6] = system: M. catarrhalis ATCC 43617; type: cell-based, Moraxella catarrhalis
Description: as §1, §2, §3

SMILES: COC(=S)NC[C@H]1CN(c2ccc(N3CCN(C(=O)c4ccno4)CC3)c(F)c2)C(=O)O1 [Example 44, (S)—O-M ethyl(3-(3-fluoro-4-(4-(isoxazole-5-carbonyl)piperazin-1-yl)phenyl)-2-oxooxazolidin-5-yl)methylcarbamothioate]
- Antimicrobial Screening (MIC) [1]: 0.25 µg/mL
- Antimicrobial Screening (MIC) (S. epidermidis MRO 02045): 0.5 µg/mL
- Antimicrobial Screening (MIC) [2]: 0.25 µg/mL
- Antimicrobial Screening (MIC) (S. epidermidis MRO 02002): 0.5 µg/mL
- Antimicrobial Screening (MIC) [3]: 0.5 µg/mL
- Antimicrobial Screening (MIC) (S. epidermidis MRO 02095): 0.25 µg/mL
- Antimicrobial Screening (MIC) (E. faecium MRO 04038): 0.25 µg/mL
- Antimicrobial Screening (MIC) (E. faecium ATCC 700221): 0.25 µg/mL
- Antimicrobial Screening (MIC) (E. faecium MRO 04037): 0.25 µg/mL
- Antimicrobial Screening (MIC) (E. faecium MRO 04198): 0.25 µg/mL
- Antimicrobial Screening (MIC) (S. aureus MRO 00013): 0.5 µg/mL
- Antimicrobial Screening (MIC) (S. aureus ATCC 43300): 0.5 µg/mL
- Antimicrobial Screening (MIC) (S. aureus MRO 00059): 0.5 µg/mL
- Antimicrobial Screening (MIC) (S. aureus MRO 0003): 0.5 µg/mL
- Antimicrobial Screening (MIC) (S. aureus MRO 00055): 0.5 µg/mL
- Antimicrobial Screening (MIC) (S. aureus ATCC 29213): 0.5 µg/mL
- Antimicrobial Screening (MIC) (S. aureus MRO 00030): 0.5 µg/mL
- Antimicrobial Screening (MIC) (S. aureus MRO 002053): 0.5 µg/mL
- Antimicrobial Screening (MIC) (S. aureus MRO 0001): 0.5 µg/mL
- Antimicrobial Screening (MIC) (S. aureus MRO 00048): 0.25 µg/mL
- Antimicrobial Screening (MIC) (E. faecalis MRO 04050): 0.5 µg/mL
- Antimicrobial Screening (MIC) (E. faecalis MRO 04035): 0.25 µg/mL
- Antimicrobial Screening (MIC) (E. faecalis MRO 04205): 0.25 µg/mL
- Antimicrobial Screening (MIC) (E. faecalis ATCC 29212): 0.25 µg/mL
- Antimicrobial Screening (MIC) (E. faecalis ATCC 51299): 0.25 µg/mL
- Antimicrobial Screening (MIC) [4]: 1 µg/mL
- Antimicrobial Screening (MIC) [5]: 2 µg/mL
- Antimicrobial Screening (MIC) [6]: 1 µg/mL

SMILES: COC(=S)NC[C@H]1CN(c2ccc(N3CCN(C(=O)CNS(C)(=O)=O)CC3)c(F)c2)C(=O)O1 [Example 43]
- Antimicrobial Screening (MIC) [1]: 0.25 µg/mL
- Antimicrobial Screening (MIC) (S. epidermidis MRO 02045): 0.5 µg/mL
- Antimicrobial Screening (MIC) [2]: 0.5 µg/mL
- Antimicrobial Screening (MIC) (S. epidermidis MRO 02002): 0.5 µg/mL
- Antimicrobial Screening (MIC) [3]: 0.5 µg/mL
- Antimicrobial Screening (MIC) (S. epidermidis MRO 02095): 0.5 µg/mL
- Antimicrobial Screening (MIC) (E. faecium MRO 04038): 0.25 µg/mL
- Antimicrobial Screening (MIC) (E. faecium ATCC 700221): 0.25 µg/mL
- Antimicrobial Screening (MIC) (E. faecium MRO 04037): 0.25 µg/mL
- Antimicrobial Screening (MIC) (E. faecium MRO 04198): 0.5 µg/mL
- Antimicrobial Screening (MIC) (S. aureus MRO 00013): 0.5 µg/mL
- Antimicrobial Screening (MIC) (S. aureus ATCC 43300): 0.5 µg/mL
- Antimicrobial Screening (MIC) (S. aureus MRO 00059): 0.5 µg/mL
- Antimicrobial Screening (MIC) (S. aureus MRO 0003): 0.5 µg/mL
- Antimicrobial Screening (MIC) (S. aureus MRO 00055): 0.5 µg/mL
- Antimicrobial Screening (MIC) (S. aureus ATCC 29213): 0.5 µg/mL
- Antimicrobial Screening (MIC) (S. aureus MRO 00030): 0.5 µg/mL
- Antimicrobial Screening (MIC) (S. aureus MRO 002053): 0.5 µg/mL
- Antimicrobial Screening (MIC) (S. aureus MRO 0001): 0.25 µg/mL
- Antimicrobial Screening (MIC) (S. aureus MRO 00048): 0.5 µg/mL
- Antimicrobial Screening (MIC) (E. faecalis MRO 04050): 0.25 µg/mL
- Antimicrobial Screening (MIC) (E. faecalis MRO 04035): 0.25 µg/mL
- Antimicrobial Screening (MIC) (E. faecalis MRO 04205): 0.25 µg/mL
- Antimicrobial Screening (MIC) (E. faecalis ATCC 29212): 0.25 µg/mL
- Antimicrobial Screening (MIC) (E. faecalis ATCC 51299): 0.25 µg/mL
- Antimicrobial Screening (MIC) [4]: 2 µg/mL
- Antimicrobial Screening (MIC) [5]: 2 µg/mL
- Antimicrobial Screening (MIC) [6]: 1 µg/mL

SMILES: COC(=S)NC[C@H]1CN(c2ccc(N3CCN(C(=O)c4ccc(N)nc4)CC3)c(F)c2)C(=O)O1 [Example 37, (S)—O-Methyl(3-(4-(4-(6-aminonicotinoyl)piperazin-1-yl)-3-fluorophenyl)-2-oxooxazolidin-5-yl)methylcarbamothioate]
- Antimicrobial Screening (MIC) [1]: 0.5 µg/mL
- Antimicrobial Screening (MIC) (S. epidermidis MRO 02045): 0.25 µg/mL
- Antimicrobial Screening (MIC) [2]: 0.25 µg/mL
- Antimicrobial Screening (MIC) (S. epidermidis MRO 02002): 0.5 µg/mL
- Antimicrobial Screening (MIC) [3]: 0.5 µg/mL
- Antimicrobial Screening (MIC) (S. epidermidis MRO 02095): 0.5 µg/mL
- Antimicrobial Screening (MIC) (E. faecium MRO 04038): 0.25 µg/mL
- Antimicrobial Screening (MIC) (E. faecium ATCC 700221): 0.25 µg/mL
- Antimicrobial Screening (MIC) (E. faecium MRO 04037): 0.25 µg/mL
- Antimicrobial Screening (MIC) (E. faecium MRO 04198): 0.25 µg/mL
- Antimicrobial Screening (MIC) (S. aureus MRO 00013): 0.5 µg/mL
- Antimicrobial Screening (MIC) (S. aureus ATCC 43300): 0.5 µg/mL
- Antimicrobial Screening (MIC) (S. aureus MRO 00059): 0.5 µg/mL
- Antimicrobial Screening (MIC) (S. aureus MRO 0003): 0.5 µg/mL
- Antimicrobial Screening (MIC) (S. aureus MRO 00055): 0.5 µg/mL
- Antimicrobial Screening (MIC) (S. aureus ATCC 29213): 0.5 µg/mL
- Antimicrobial Screening (MIC) (S. aureus MRO 00030): 0.5 µg/mL
- Antimicrobial Screening (MIC) (S. aureus MRO 002053): 0.25 µg/mL
- Antimicrobial Screening (MIC) (S. aureus MRO 0001): 0.25 µg/mL
- Antimicrobial Screening (MIC) (S. aureus MRO 00048): 0.25 µg/mL
- Antimicrobial Screening (MIC) (E. faecalis MRO 04050): 0.25 µg/mL
- Antimicrobial Screening (MIC) (E. faecalis MRO 04035): 0.25 µg/mL
- Antimicrobial Screening (MIC) (E. faecalis MRO 04205): 0.25 µg/mL
- Antimicrobial Screening (MIC) (E. faecalis ATCC 29212): 0.25 µg/mL
- Antimicrobial Screening (MIC) (E. faecalis ATCC 51299): 0.25 µg/mL
- Antimicrobial Screening (MIC) [4]: 1 µg/mL
- Antimicrobial Screening (MIC) [5]: 2 µg/mL
- Antimicrobial Screening (MIC) [6]: 1 µg/mL

From US20100234390A1, “NOVEL COMPOUND AND THEIR USE” (priority 2007, published 2010)
